Usually melting point stands for the temperature of the solid-liquid transition. What is called chromatographic logD is lipophilicity estimated from chromatographic retention. A lower chromatographic logD goes with a more hydrophilic compound. For orientation: Papp means the rate of passage across a membrane or cell layer, normalised by area and donor concentration. One may read the microsomal CLint as a measure of how fast metabolising enzymes remove a compound, apart from limits set by blood flow.

The nature of data set [1]: eLogD, distribution coefficient (LogD) measured by HPLC. The class given is physicochemical. The procedure:
(§1) In the context of drug discovery, the distribution coefficient of a compound strongly affects how effectively the drug can reach its intended target, as well as efficacy and pharmacokinetic properties. […] To understand the effect of oxetane sulfides on this key parameter, LogD was measured for compounds 21, 2 d, and 17 d. Replacing the thioester functionality with the oxetane sulfide had the positive effect of lowering the LogD by approximately 1 Log unit (Figure 2).
(§2) Figure 2 Comparison of physicochemical parameters. eLogD=distribution coefficient (LogD) measured by HPLC. HLM=Clearance in liver microsomes; RRCK=Cell membrane permeability. TEXT PRINTED IN THE PICTURE: 21: eLogD 4.7 | 2d: eLogD 3.8 | 17d: eLogD 2.1 | 20: HLM: 7.0 μL/min/mg; RRCK: 0.1 10^-6 cm/s | 22: HLM: 7.0 μL/min/mg; RRCK: 1.3 10^-6 cm/s DOUBTS OF THE COPYIST ABOUT THIS PICTURE: 2d, eLogD: 3.8 or 3.6 (small print) / 22, RRCK: 1.3 or 1.5 or 1.8 (small print) / 20 and 22, RRCK: exponent -6 is printed very small and could be -5 or -8

Data set [2] is described as follows: RRCK cell membrane permeability. The class given is in vitro ADME. The note with it: dog, MDCK. The method, then:
as §1, §2

Another data set relates to RRCK. The experiment in a line: RRCK cell membrane permeability. Particulars: 20 compared with methane analogue 22, in words. The class given is in vitro ADME. The procedure: as §1, §2
A short description of data set [3]: HLM, clearance in liver microsomes. The class given is in vitro ADME, human. The note with it: for clearance profile by human liver microsomes, comparison: 20 compared with 22, in words; for microsomal CLint: human, human liver microsomes. The method, then: as §1, §2
(In general: Liver microsomes are a subcellular fraction often used to study metabolism.)

For the compound `COc1ccc(SC2(c3ccc(OC)cc3)COC2)cc1` [2d], the melting point was 113 to 116 °C. Further, in data set [1], the chromatographic logD came to 3.8.

In the case of `c1ccc(SC2(c3ccccc3)CCC2)cc1` [13c], the melting point lay in the range of 46 to 48 °C.

With `COc1ccc(C2(S(=O)(=O)c3ccc(OC)cc3)COC2)cc1` [17d], the melting point fell in the range of 158 to 160 °C. This compound also gave a chromatographic logD in data set [1] of 2.1.

`COc1ccc(C2(SCC(N)C(=O)O)COC2)cc1` (stereo not shown) [compound 20] yielded a Papp in data set [2] of 0.1 ×10⁻⁶ cm/s. Also, the “cell permeability compared with analogue” value with RRCK is given as “slightly lower cell permeability than the corresponding methane analogue 22”. For the same compound, in data set [3], the “clearance profile by human liver microsomes, comparison” value was “determined to be the same” and the microsomal CLint came to 7 µL/min/mg.

In data set [1], `COc1ccc(SC(=O)c2ccc(OC)cc2)cc1` [compound 21] displayed a chromatographic logD of 4.7.

Compound `COc1ccc(CSCC(N)C(=O)O)cc1` (stereo not shown) [compound 22] came in with a Papp in data set [2] of 1.3 ×10⁻⁶ cm/s. In data set [3], the “clearance profile by human liver microsomes, comparison” value is listed as “determined to be the same” and the microsomal CLint worked out at 7 µL/min/mg.

(Values after PMC5814735, “Lithium‐Catalyzed Thiol Alkylation with Tertiary and Secondary Alcohols: Synthesis of 3‐Sulfanyl‐Oxetanes as Bioisosteres” (Chemistry (Weinheim an Der Bergstrasse, Germany), 2017).)
